What was measured:
Format in all cases: in vivo
[1] = tested on: Boll Weevil (Anthonomus grandis); assay: B.9 Boll weevil microtiter diet test, egg and larval mortality; settings: 120 h, in comparison with untreated controls, egg and larval mortality after 5 days
Summary of the method: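 Insect diet carrying 20-30 A. grandis eggs per well was sprayed with compounds formulated in 75% water/25% DMSO, at various concentrations with two replicates. Plates were held at about 23±1° C and 50±5% RH for 5 days. Egg and larval mortality were then scored visually.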

[2] = tested on: Cowpea Aphid (Aphis craccivora); assay: B.1 Cowpea aphid spray test on potted cowpea plants; settings: in comparison with untreated controls, population reduction assessed after 24, 72 and 120 hours
Method: B.1 Cowpea Aphid (Aphis craccivora)
The active compounds were formulated in 50:50 (v/v) acetone:water. The test solution was prepared at the day of use. Potted cowpea plants colonized with approximately 100-150 aphids of various stages were sprayed after the pest population has been recorded. Population reduction was assessed after 24, 72, and 120 hours.

[3] = tested on: Rice brown plant hopper (Nilaparvata lugens); assay: B.11 Rice brown plant hopper test on sprayed rice seedlings; settings: in comparison with untreated controls, after 72 hours
Summary of the method: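 Compounds formulated in 50:50 acetone:water with 0.1% vol/vol surfactant and sprayed onto potted rice seedlings. Air-dried plants were caged, infested with 10 adults and held at about 28-29 °C, 50-60% RH. Percent mortality scored after 72 hours.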

[4] = tested on: Green Peach Aphid (Myzus persicae); assay: B.13 Green peach aphid test on sprayed bell pepper plants; settings: 120 h, in comparison with untreated controls, after 5 days
From the text: B.13 Green Peach Aphid (Myzus persicae)
The active compounds were formulated in cyclohexanone as a 10,000 ppm solution supplied in tubes. The tubes were inserted into an automated electrostatic sprayer equipped with an atomizing nozzle and they served as stock solutions for which lower dilutions were made in 50% acetone:50% water (v/v). A nonionic surfactant (Kinetic®) was included in the solution at a volume of 0.01% (v/v). Bell pepper plants at the first true-leaf stage were infested prior to treatment by placing heavily infested leaves from the main colony on top of the treatment plants. Aphids were allowed to transfer overnight to accomplish an infestation of 30-50 aphids per plant and the host leaves were removed. The infested plants were then sprayed by an automated electrostatic plant sprayer equipped with an atomizing spray nozzle. The plants were dried in the sprayer fume hood, removed, and then maintained in a growth room under fluorescent lighting in a 24-hr photoperiod at about 25° C. and about 20-40% relative humidity. Aphid mortality on the treated plants, relative to mortality on untreated control plants, was determined after 5 days.

[5] = tested on: Southern Armyworm (Spodoptera eridania); assay: B.6 Southern armyworm test on sprayed lima bean plants; settings: 96 h, in comparison with untreated controls, 4 days after treatment
Method: B.6 Southern Armyworm (Spodoptera eridania)
The active compounds were formulated in cyclohexanone as a 10,000 ppm solution supplied in 1.3 ml ABgene® tubes. These tubes were inserted into an automated electrostatic sprayer equipped with an atomizing nozzle and they served as stock solutions for which lower dilutions were made in 50% acetone:50% water (v/v). A nonionic surfactant (Kinetic®) was included in the solution at a volume of 0.01% (v/v). Lima bean plants (variety Sieva) were grown 2 plants to a pot and selected for treatment at the 1st true leaf stage. Test solutions were sprayed onto the foliage by an automated electrostatic plant sprayer equipped with an atomizing spray nozzle. The plants were dried in the sprayer fume hood and then removed from the sprayer. Each pot was placed into perforated plastic bags with a zip closure. Ten to 11 armyworm larvae were placed into the bag and the bags zipped closed. Test plants were maintained in a growth room at 25° C. and 20-40% relative humidity for 4 days, avoiding direct exposure to fluorescent light (24 hour photoperiod) to prevent trapping of heat inside the bags. Mortality and reduced feeding were assessed 4 days after treatment, compared to untreated control plants.

[6] = tested on: Yellow Fever Mosquito (Aedes aegypti); assay: whole plant or invertebrate; settings: 48 h, in comparison with untreated controls, larval mortality after 2 days
Summary of the method: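 Freshly hatched larvae (5-15 per well) in 200 μl tap water; compounds formulated in 75% water/25% DMSO and sprayed at 2.5 μl per well at several concentrations, two replicates. Incubated 2 days at 28±1° C., 80±5% RH; larval mortality scored visually.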

[7] = tested on: Green Peach Aphid (Myzus persicae); assay: B.3 Green peach aphid systemic test, artificial diet under membrane; settings: 72 h, concentration of the test solution 2500 mg/L, 3 days
Summary of the method: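 Systemic uptake from artificial liquid diet beneath a membrane, compound formulated in 75% water/25% DMSO and added to diet at several concentrations, two replicates. 5-8 adult aphids fed on treated diet for 3 days at about 23±1° C. and 50±5% RH. Mortality and fecundity scored visually.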

[8] = tested on: Silverleaf Whitefly (Bemisia argentifolii); assay: B.5 Silverleaf whitefly test on sprayed cotton plants; settings: 72 h, in comparison with untreated controls, 3 days after treatment
Summary of the method: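 Cotyledon-stage cotton plants were electrostatically sprayed with compound diluted from a 10,000 ppm cyclohexanone stock into 50% acetone/water with 0.01% nonionic surfactant. After drying, 10–12 adult whiteflies (3–5 days old) were released onto each plant. Mortality was scored after 3 days at 25 °C and 20–40% RH against untreated plants.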

[9] = tested on: Cotton Aphid (Aphis gossypii, Mixed Life Stages); assay: B.14 Cotton aphid test on sprayed cotton plants; settings: 120 h, in comparison with untreated controls, after 5 days
Method: B.14 Cotton Aphid (Aphis gossypii, Mixed Life Stages)
The active compounds were formulated in cyclohexanone as a 10,000 ppm solution supplied in 1.3 ml ABgene® tubes. These tubes were inserted into an automated electrostatic sprayer equipped with an atomizing nozzle and they served as stock solutions for which lower dilutions were made in 50% acetone:50% water (v/v). A nonionic surfactant (Kinetic®) was included in the solution at a volume of 0.01% (v/v). Cotton plants at the cotyledon stage were infested with aphids prior to treatment by placing a heavily infested leaf from the main aphid colony on top of each cotyledon. Aphids were allowed to transfer overnight to accomplish an infestation of 80-100 aphids per plant and the host leaf was removed. The infested plants were then sprayed by an automated electrostatic plant sprayer equipped with an atomizing spray nozzle. The plants were dried in the sprayer fume hood, removed from the sprayer, and then maintained in a growth room under fluorescent lighting in a 24-hr photoperiod at 25° C. and 20-40% relative humidity. Aphid mortality on the treated plants, relative to mortality on untreated control plants, was determined after 5 days.

[10] = tested on: Tobacco Budworm (Heliothis virescens); assay: B.8 Tobacco budworm test on sprayed cotton plants; settings: 96 h, in comparison with untreated controls, 4 days after treatment
Method: B.8 Tobacco Budworm (Heliothis virescens) I
The active compounds were formulated in cyclohexanone as a 10,000 ppm solution supplied in tubes. The tubes were inserted into an automated electrostatic sprayer equipped with an atomizing nozzle and they served as stock solutions for which lower dilutions were made in 50% acetone:50% water (v/v). A nonionic surfactant (Kinetic®) was included in the solution at a volume of 0.01% (v/v). Cotton plants were grown 2 plants to a pot and selected for treatment at the cotyledon stage. Test solutions were sprayed onto the foliage by an automated electrostatic plant sprayer equipped with an atomizing spray nozzle. The plants were dried in the sprayer fume hood and then removed from the sprayer. Each pot was placed into perforated plastic bags with a zip closure. About 10 to 11 budworm larvae were placed into the bag and the bags zipped closed. Test plants were maintained in a growth room at about 25° C. and about 20-40% relative humidity for 4 days, avoiding direct exposure to fluorescent light (24 hour photoperiod) to prevent trapping of heat inside the bags. Mortality and reduced feeding were assessed 4 days after treatment, compared to untreated control plants.

[11] = tested on: Orchid Thrips (Dichromothrips corbetti); assay: B.4 Orchid thrips floral-immersion test; settings: 96 h, in comparison with untreated controls, after 4 days
Summary of the method: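 Orchid flowers dipped in 300 ppm compound (acetone:water 1:1, 0.01% surfactant), dried, then caged with 10-15 adult D. corbetti from a lab colony. Held under continuous light at about 28° C. Live thrips counted after 4 days; mortality extrapolated from pre-treatment numbers.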

[12] = tested on: Green Soldier Stink Bug (Nezara viridula); assay: B.15 Green soldier stink bug test on sprayed soybean pods; settings: 120 h, in comparison with untreated controls, after 5 days
[13] = tested on: Vetch Aphid (Megoura viciae); assay: B.7 Vetch aphid test on broad bean leaf disks; settings: foliar, 120 h, in comparison with untreated controls, 5 days
Summary of the method: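 Broad bean leaf disks sprayed with compounds in 25% DMSO/75% water at several concentrations, two replicates, then air-dried. Infested with 5-8 adult Megoura viciae and held 5 days at about 23±1 °C and 50±5% RH. Mortality and fecundity scored visually.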

[14] = tested on: Mediterranean Fruitfly (Ceratitis capitata); assay: B.2 Mediterranean fruitfly microtiter diet test, egg and larval mortality; settings: 120 h, in comparison with untreated controls, egg and larval mortality after 5 days
Summary of the method: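 Microtiter plates held insect diet with 50-80 C. capitata eggs; compounds in 75% water/25% DMSO were sprayed onto the diet at various concentrations, two replicates. Plates kept about 5 days at 28±1 °C and 80±5% RH, then egg and larval mortality scored visually.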

[15] = tested on: Red Spider Mite (Tetranychus kanzawai); assay: B.10 Red spider mite test on sprayed cowpea beans; settings: in comparison with untreated controls, 72 hours after treatment
Method: B.10 Red Spider Mite (Tetranychus kanzawai)
The active compound is dissolved at the desired concentration in a mixture of 1:1 (vol:vol) distilled water:acetone. Add surfactant (Alkamuls® EL 620) at the rate of 0.1% (vol/vol). The test solution is prepared at the day of use. Potted cowpea beans of 7-10 days of age were cleaned with tap water and sprayed with 5 ml of the test solution using air driven hand atomizer. The treated plants were allowed to air dry and afterwards inculated with 20 or more mites by clipping a cassava leaf section with known mite population. Treated plants were placed inside a holding room at about 25-27° C. and about 50-60% relative humidity. Percent mortality was assessed 72 hours after treatment.

CC(c1ccc(F)cn1)C(C#N)(C#N)c1ccccc1 (stereo not drawn) [II-8]
≥ 75%: mortality at 2500 ppm [1] | mortality at 500 ppm [2] | mortality at 300 ppm [3] | mortality at 300 ppm [4] | mortality at 300 ppm ([5]; 300 ppm) | mortality at 500 ppm ([5]; 500 ppm) | mortality at 2500 ppm [6] | mortality at 2500 µg/mL [7] | mortality at 500 ppm [8] | mortality at 300 ppm [9]

N#CC(C#N)(Cc1ccc(F)nc1F)c1cc(F)cc(F)c1 [II-52]
≥ 75%: mortality at 2500 ppm [1] | mortality at 2500 ppm [10] | mortality at 2500 µg/mL [7] | mortality at 500 ppm [11]

N#CC(C#N)(Cc1ccc(C(F)(F)F)nc1)c1ccccc1 [II-3]
≥ 75%: mortality at 2500 ppm [1] | mortality at 500 ppm [2] | mortality at 2500 ppm [10] | mortality at 300 ppm [3] | mortality at 2500 ppm [6] | mortality at 500 ppm [12] | mortality at 2500 ppm [13] | mortality at 500 ppm [11]

N#CC(C#N)(Cc1cnc(C(F)(F)F)cn1)c1ccccc1 [II-26]
≥ 75%: mortality at 2500 ppm [1] | mortality at 500 ppm [2] | mortality at 2500 ppm [10] | mortality at 2500 ppm [14] | mortality at 2500 ppm [6] | mortality at 500 ppm [15] | mortality at 2500 ppm [13] | mortality at 500 ppm [8] | mortality at 500 ppm [11]

N#CC(C#N)(Cc1ccc(F)cn1)c1ccccc1 [II-11]
≥ 75%: mortality at 2500 ppm [10] | mortality at 2500 µg/mL [7]
